biological target: Escherichia coli DNA gyrase A/B tetramer (Escherichia coli (strain K12), UniProt P0AES4+P0AES6); assay: DNA gyrase supercoiling activity fluorescence polarisation assay; format: biochemical; conditions: not given
Procedure, shortened: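 Supercoiling reactions quenched with 40 nM 5′-BODIPY-FL triplex-forming oligonucleotide probe in pH 3.5 NaCl/sodium acetate buffer; after 60 min, fluorescence anisotropy read (ex 485/em 535 nm). IC50 by nonlinear regression, normalised to 0.8% DMSO (100% activity) and 5 μM ciprofloxacin (0% activity).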

SMILES | IC50 [µM]
C[C@@H]1CN2c3c(cc4c(C(N)=O)noc4c3F)CC3(C(=O)NC(=O)NC3=O)[C@H]2[C@H](C)O1 (relative stereo) [Example 142, (2R,4S,4aS)-rel-11-fluoro-2,4-dimethyl-2′,4′,6′-trioxo-2,2′,3′,4,4a,4′,6,6′-octahydro-^1H,1′H-spiro[isoxazolo[4,5-g][1,4]oxazino[4,3-a]quinoline-5,5′-pyrimidine]-8-carboxamide] | 0.3
C[C@@H]1CN2c3c(cc4c(N5CCCCC5)noc4c3F)CC3(C(=O)NC(=O)NC3=O)[C@H]2[C@H](C)O1 (relative stereo) [Example 21] | 2.4

same assay, conditions: 5 nM enzyme, relaxed plasmid, 0.3 mM ATP, ambient temperature; read-out: E. coli DNA gyrase supercoiling IC50

SMILES | IC50 [µM]
C[C@@H]1CN2c3c(cc4c(-c5ncccn5)noc4c3F)CC3(C(=O)NC(=O)NC3=O)[C@H]2[C@H](C)O1 [Example 148(b), (2R,4S,4aS)-11-fluoro-2,4-dimethyl-8-(pyrimidin-2-yl)-2,4,4a,6-tetrahydro-1H,1′H-spiro[isoxazolo[4,5-g][1,4]oxazino[4,3-a]quinoline-5,5′-pyrimidine]-2′,4′,6′(3′H)-trione] | 0.4
C[C@@H]1CN2c3c(cc4c(-c5ccco5)noc4c3F)CC3(C(=O)NC(=O)NC3=O)[C@H]2[C@H](C)O1 (relative stereo) [Example 97, (2R,4S,4aS)-rel-11-fluoro-8-(furan-2-yl)-2,4-dimethyl-2,4,4a,6-tetrahydro-1H,1′H-spiro[isoxazolo[4,5-g][1,4]oxazino[4,3-a]quinoline-5,5′-pyrimidine]-2′,4′,6′(3′H)-trione] | 0.7
C[C@@H]1CN2c3c(cc4c(NCC5CCOCC5)noc4c3F)CC3(C(=O)NC(=O)NC3=O)[C@H]2[C@H](C)O1 (relative stereo) [Example 19, (2R,4S,4aS)-rel-11-fluoro-2,4-dimethyl-8-[(tetrahydro-2H-pyran-4-ylmethyl)amino]-1,2,4,4a-tetrahydro-2′H,6H-spiro[1,4-oxazino[4,3-a][1,2]oxazolo[4,5-]quinoline-5,5′-pyrimidine]-2′,4′,6′(1′H,3′H)-trione] | 2.9
COCC(COC)(COC)NC(=O)c1noc2c(F)c3c(cc12)CC1(C(=O)NC(=O)NC1=O)[C@H]1[C@H](C)O[C@H](C)CN31 (relative stereo) [Example 163, (2R,4S,4aS)-rel-N-(1,3-dimethoxy-2-(methoxymethyl)propan-2-yl)-11-fluoro-2,4-dimethyl-2′,4′,6′-trioxo-2,2′,3′,4,4a,4′,6,6′-octahydro-1H,1′H-spiro[isoxazolo[4,5-g][1,4]oxazino[4,3-a]quinoline-5,5′-pyrimidine]-8-carboxamide] | 17
C[C@@H]1CN2c3c(cc4c(N(C)C)noc4c3F)CC3(C(=O)NC(=O)NC3=O)[C@H]2[C@H](C)O1 (relative stereo) [Example 24, (2R,4S,4aS)-rel-8-(dimethylamino)-11-fluoro-2,4-dimethyl-1,2,4,4a-tetrahydro-2′H,6H-spiro[isoxazolo[4,5-g][1,4]oxazino[4,3-a]quinoline-5,5′-pyrimidine]-2′,4′,6′(1′H,3′H)-trione] | 0.3
C[C@H]1CN2c3c(nc4c(-c5nccs5)noc4c3Cl)CC3(C(=O)NC(=O)NC3=O)[C@@H]2[C@@H](C)O1 [Example 111(a), (2S,4R,4aR)-11-chloro-2,4-dimethyl-8-(thiazol-2-yl)-2,4,4a,6-tetrahydro-1H,1′H-spiro[isoxazolo[4,5-g][1,4]oxazino[4,3-a][1,5]naphthyridine-5,5′-pyrimidine]-2′,4′,6′(3′H)-trione] | 83
Cc1nc(-c2noc3c(F)c4c(cc23)CC2(C(=O)NC(=O)NC2=O)[C@H]2[C@H](C)O[C@H](C)CN42)co1 (relative stereo) [Example 65, (2R,4S,4aS)-rel-11-fluoro-2,4-dimethyl-8-(2-methyl-1,3-oxazol-4-yl)-1,2,4,4a-tetrahydro-2′H,6H-spiro[1,4-oxazino[4,3-a][1,2]oxazolo[4,5-g]quinoline-5,5′-pyrimidine]-2′,4′,6′(1′H,3′H)-trione] | 1.1
C[C@@H]1CN2c3c(cc4c(-n5ccnc5)noc4c3F)CC3(C(=O)NC(=O)NC3=O)[C@H]2[C@H](C)O1 (relative stereo) [Example 58, (2R,4S,4aS)-rel-11-fluoro-8-(1H-imidazol-1-yl)-2,4-dimethyl-1,2,4,4a-tetrahydro-2′H,6H-spiro[1,4-oxazino[4,3-a][1,2]oxazolo[4,5-g]quinoline-5,5′-pyrimidine]-2′,4′,6′(1′H,3′H)-trione] | 0.5
C[C@@H]1CN2c3c(cc4c(-n5cncn5)noc4c3F)CC3(C(=O)NC(=O)NC3=O)[C@@H]2[C@@H](C)O1 [Example 53(b), (2R,4R,4aR)-11-fluoro-2,4-dimethyl-8-(1H-1,2,4-triazol-1-yl)-2,4,4a,6-tetrahydro-1H,1′H-spiro[isoxazolo[4,5-g][1,4]oxazino[4,3-a]quinoline-5,5′-pyrimidine]-2′,4′,6′(3′H)-trione] | 20
C[C@@H]1CN2c3c(cc4c(-c5ccccn5)noc4c3Cl)CC3(C(=O)NC(=O)NC3=O)[C@H]2[C@H](C)O1 (relative stereo) [Example 38, (2R,4S,4aS)-rel-11-chloro-2,4-dimethyl-8-(pyridin-2-yl)-1,2,4,4a-tetrahydro-2′H,6H-spiro[1,4-oxazino[4,3-a][1,2]oxazolo[4,5-g]quinoline-5,5′-pyrimidine]-2′,4′,6′(1′H,3′H)-trione] | 0.8
C[C@@H]1CN2c3c(cc4c(OCc5ccccc5)noc4c3F)CC3(C(=O)NC(=O)NC3=O)[C@H]2[C@H](C)O1 (relative stereo) [Example 52, (2R,4S,4aS)-rel-8-(benzyloxy)-11-fluoro-2,4-dimethyl-1,2,4,4a-tetrahydro-2′H,6H-spiro[1,4-oxazino[4,3-a][1,2]oxazolo[4,5-g]quinoline-5,5′-pyrimidine]-2′,4′,6′(1′H,3′H)-trione] | 2.4
C[C@@H]1CN2c3c(cc4c(C5CCOCC5)noc4c3F)CC3(C(=O)NC(=O)NC3=O)[C@H]2[C@H](C)O1 (relative stereo) [Example 100, (2R,4S,4aS)-rel-11-fluoro-2,4-dimethyl-8-(tetrahydro-2H-pyran-4-yl)-2,4,4a,6-tetrahydro-1H,1′H-spiro[isoxazolo[4,5-g][1,4]oxazino[4,3-a]quinoline-5,5′-pyrimidine]-2′,4′,6′(3′H)-trione] | 4.1
CCN(C)C(=O)c1noc2c(F)c3c(cc12)CC1(C(=O)NC(=O)NC1=O)[C@H]1[C@H](C)O[C@H](C)CN31 (relative stereo) [Example 139, (2R,4S,4aS)-rel-N-ethyl-11-fluoro-N,2,4-trimethyl-2′,4′,6′-trioxo-2,2′,3′,4,4a,4′,6,6′-octahydro-1H,1′H-spiro[isoxazolo[4,5-g][1,4]oxazino[4,3-a]quinoline-5,5′-pyrimidine]-8-carboxamide] | 7.6
C[C@@H]1CN2c3c(cc4c([S+](C)[O-])noc4c3F)CC3(C(=O)NC(=O)NC3=O)[C@H]2[C@H](C)O1 (relative stereo) [Example 181, (2R,4S,4aS)-rel-11-fluoro-2,4-dimethyl-8-(methylsulfinyl)-1,2,4,4a-tetrahydro-2′H,6H-spiro[1,4-oxazino[4,3-a][1,2]oxazolo[4,5-g]quinoline-5,5′-pyrimidine]-2′,4′,6′(1′H,3′H)-trione] | 3.3
C[C@@H]1CN2c3c(cc4c(-c5cncs5)noc4c3Cl)CC3(C(=O)NC(=O)NC3=O)[C@H]2[C@H](C)O1 (relative stereo) [Example 41, (2R,4S,4aS)-rel-11-chloro-2,4-dimethyl-8-(1,3-thiazol-5-yl)-1,2,4,4a-tetrahydro-2′H,6H-spiro[1,4-oxazino[4,3-a][1,2]oxazolo[4,5-g]quinoline-5,5′-pyrimidine]-2′,4′,6′(1′H,3′H)-trione] | 0.8
C[C@@H]1CN2c3c(nc4c(-c5cccnc5)noc4c3Cl)CC3(C(=O)NC(=O)NC3=O)[C@H]2[C@H](C)O1 (relative stereo) [Example 109, (2R,4S,4aS)-rel-11-chloro-2,4-dimethyl-8-(pyridyin-3-yl)-2,4,4a,6-tetrahydro-1H,1′H-spiro[isoxazolo[4,5-g][1,4]oxazino[4,3-a][1,5]naphthyridine-5,5′-pyrimidine]-2′,4′,6′(3′H)-trione] | 0.5
C[C@@H]1CN2c3c(cc4c(C(F)(F)F)noc4c3F)CC3(C(=O)NC(=O)NC3=O)[C@H]2[C@H](C)O1 (racemic) [Example 92, (2R,4 S,4 aS)-rel-11-fluoro-2,4-dimethyl-8-(trifluoromethyl)-2,4,4a,6-tetrahydro-1H,1′H-spiro[isoxazolo[4,5-g][1,4]oxazino[4,3-a]quinoline-5,5′-pyrimidine]-2′,4′,6′(3′H)-trione] | 1.4
COCc1noc2c(Cl)c3c(cc12)CC1(C(=O)NC(=O)NC1=O)[C@H]1[C@H](C)O[C@H](C)CN31 (relative stereo) [Example 49, (2R,4S,4aS)-rel-11-chloro-8-(methoxymethyl)-2,4-dimethyl-1,2,4,4a-tetrahydro-2′H,6H-spiro[1,4-oxazino[4,3-a][1,2]oxazolo[4,5-g]quinoline-5,5′-pyrimidine]-2′,4′,6′(1′H,3′H)-trione] | 1.7
C[C@@H]1CN2c3c(cc4c(-c5cncc(Cl)n5)noc4c3F)CC3(C(=O)NC(=O)NC3=O)[C@H]2[C@H](C)O1 (relative stereo) [Example 79, (2R,4S,4aS)-rel-8-(6-chloropyrazin-2-yl)-11-fluoro-2,4-dimethyl-2,4,4a,6-tetrahydro-1H,1′H-spiro[isoxazolo[4,5-g][1,4]oxazino[4,3-a]quinoline-5,5′-pyrimidine]-2′,4′,6′(3′H)-trione] | 0.8
C[C@@H]1CN2c3c(cc4c(C(=O)NCc5cccs5)noc4c3F)CC3(C(=O)NC(=O)NC3=O)[C@H]2[C@H](C)O1 (relative stereo) [Example 154, (2R,4S,4aS)-rel-11-fluoro-2,4-dimethyl-2′,4′,6′-trioxo-N-(thiophen-2-ylmethyl)-2,2′,3′,4,4a,4′,6,6′-octahydro-1H,1′H-spiro[isoxazolo[4,5-g][1,4]oxazino[4,3-a]quinoline-5,5′-pyrimidine]-8-carboxamide] | 1.5

Source: US9040528B2, “Chemical compounds 542” (AstraZeneca AB, priority 2008, dated 2015)
